From patent US20050244891A1, “Ligand-containing micelles and uses thereof” (Applera Corporation, priority 2003, published 2005)
Blank lines part the entries; values can stand above or below the compound they belong to. The star is where a group is joined. K(dye2) = lysine labeled with dye2 = 5-carboxy-2′,7′-dipyridyl-sulfonefluorescein; K(tet) = lysine labeled with tet = 2′,7′,4,7-tetrachloro-5-carboxy fluorescein; Heptadecanoyl = CCCCCCCCCCCCCCCCC(=O)*; Pentadecanoyl = CCCCCCCCCCCCCCC(=O)*; Palmitoyl = CCCCCCCCCCCCCCCC(=O)*; Tridecanoyl = CCCCCCCCCCCCC(=O)*; AEEA = NCCOCCOCC(=O)O

Assays:
[1] = cited from earlier work
[2] = normalized: phenylalanine 100, glycine 0; cited from earlier work
[3] = tested on: Akt; assay: Fluorescence of micelle with signal molecule upon treatment with protein kinase (Table 19); assay type: biochemical; conditions: Conc 8 uM
From the text: (§1) Table 19 also provides the specific protein kinase that can be used to modify each of these signal molecules, as well as the fluorescence observed with a micelle comprising the signal molecules upon treatment with the specified protein kinase.

[4] = tested on: PKA; assay: as above; assay type: biochemical; conditions: Conc 8 uM; for RFUs at 10 uL (final): after kinase; for RFUs at 10 uL (initial): before kinase
From the text: as §1

[5] = tested on: PKC; assay: as above; assay type: biochemical; conditions: for RFUs at 10 uL (final): after kinase; for RFUs at 10 uL (initial): before kinase
From the text: as §1

[6] = biological target: MAPKAP2 (Homo sapiens, UniProt P49137); assay: as above; assay type: biochemical; conditions: Conc 8 uM
From the text: as §1

[7] = tested on: Src, lyn, fyn; assay: as above; assay type: biochemical; conditions: Conc 8 uM
From the text: as §1

[8] = tested on: MAPK; assay: as above; assay type: biochemical; conditions: Conc 16 uM
From the text: as §1

MAPKAP2, sequence (P49137 whole entry): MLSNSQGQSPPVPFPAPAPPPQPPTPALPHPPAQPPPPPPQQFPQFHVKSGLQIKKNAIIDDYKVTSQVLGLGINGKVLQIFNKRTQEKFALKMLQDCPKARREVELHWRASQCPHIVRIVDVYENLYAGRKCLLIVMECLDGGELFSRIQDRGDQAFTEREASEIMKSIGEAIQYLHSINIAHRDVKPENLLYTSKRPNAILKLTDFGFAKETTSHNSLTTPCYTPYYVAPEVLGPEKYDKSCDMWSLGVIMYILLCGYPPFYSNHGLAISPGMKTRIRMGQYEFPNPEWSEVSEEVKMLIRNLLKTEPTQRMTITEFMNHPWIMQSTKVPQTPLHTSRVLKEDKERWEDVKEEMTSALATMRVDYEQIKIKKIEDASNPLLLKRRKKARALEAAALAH

Compound: C[C@@H](O)[C@H](N)C(=O)O [Threonine (T), Threonine]
- Side chain pKa [1]: ˜13

Compound: O=C(O)[C@@H]1CCCN1 [Proline (P), Proline]
- Monera et al. Hydrophobicity (pH 2) [2]: −46

Compound: C15-OOOK(dye2)RPRTSSF-NH2: peptide-dye signal molecule for Akt; dye2 = 5-carboxy-2′,7′-dipyridyl-sulfonefluorescein ({Pentadecanoyl-AEEA-AEEA-AEEA-K(dye2)}-RPRTSSF-NH2)
- Fold increase [3]: 4x
- RFUs at 10 uL (final) ([3]; after kinase): 7500 RFU
- RFUs at 10 uL (initial) ([3]; before kinase): 1500 RFU

Compound: N[C@@H](CO)C(=O)O [Serine (S), Serine]
- Side chain pKa [1]: ˜13

Compound: C13-K(dye2)-LRRASLG-NH2: peptide-dye signal molecule for PKA; dye2 = 5-carboxy-2′,7′-dipyridyl-sulfonefluorescein, C-terminus amidated ({Tridecanoyl-K(dye2)}-LRRASLG-NH2)
- Fold increase [4]: 5x
- RFUs at 10 uL (final) [4]: 5000 RFU
- RFUs at 10 uL (initial) [4]: 1000 RFU

Compound: C16-OOOK(dye2)-RREGSFR-NH2: peptide-dye signal molecule for PKC; O = 2-aminoethoxy-2-ethoxyacetyl linker, dye2 = 5-carboxy-2′,7′-dipyridyl-sulfonefluorescein ({Palmitoyl-AEEA-AEEA-AEEA-K(dye2)}-RREGSFR-NH2)
- Fold increase ([5]; Conc 4 uM): 4.5x
- RFUs at 10 uL (final) ([5]; Conc 4 uM): 3000 RFU
- RFUs at 10 uL (initial) ([5]; Conc 4 uM): 650 RFU

Compound: C16-OOOK(dye2)RLNRTLSV-NH2: peptide-dye signal molecule for MAPKAP2; dye2 = 5-carboxy-2′,7′-dipyridyl-sulfonefluorescein ({Palmitoyl-AEEA-AEEA-AEEA-K(dye2)}-RLNRTLSV-NH2)
- Fold increase [6]: 4x
- RFUs at 10 uL (final) ([6]; after kinase): 3200 RFU
- RFUs at 10 uL (initial) ([6]; before kinase): 800 RFU

Compound: C13-OOOK(dye2)-LRRASLG-NH2: peptide-dye signal molecule for PKA; O = 2-aminoethoxy-2-ethoxyacetyl linker, dye2 = 5-carboxy-2′,7′-dipyridyl-sulfonefluorescein ({Tridecanoyl-AEEA-AEEA-AEEA-K(dye2)}-LRRASLG-NH2)
- Fold increase [4]: 5x
- RFUs at 10 uL (final) [4]: 5000 RFU
- RFUs at 10 uL (initial) [4]: 1000 RFU

Compound: C16-OOOK(dye2)RIGEGTYGVVRR-NH2: peptide-dye signal molecule for Src, lyn, fyn; dye2 = 5-carboxy-2′,7′-dipyridyl-sulfonefluorescein ({Palmitoyl-AEEA-AEEA-AEEA-K(dye2)}-RIGEGTYGVVRR-NH2)
- Fold increase [7]: 6.5x
- RFUs at 10 uL (final) ([7]; after kinase): 6500 RFU
- RFUs at 10 uL (initial) ([7]; before kinase): 1000 RFU

- Fold increase ([5]; Conc 6 uM): 7x
- RFUs at 10 uL (final) ([5]; Conc 6 uM): 4900 RFU
- RFUs at 10 uL (initial) ([5]; Conc 6 uM): 700 RFU
Compound: C17-OOOK(tet)-RQGSFRA-NH2: peptide-dye signal molecule for PKC; tet = 2′,7′,4,7-tetachloro-5-carboxy fluorescein ({Heptadecanoyl-AEEA-AEEA-AEEA-K(tet)}-RQGSFRA-NH2)

Compound: C17-OOOK(dye2)PRTPGGR-NH2: peptide-dye signal molecule for MAPK; dye2 = 5-carboxy-2′,7′-dipyridyl-sulfonefluorescein ({Heptadecanoyl-AEEA-AEEA-AEEA-K(dye2)}-PRTPGGR-NH2)
- Fold increase [8]: 5x
- RFUs at 10 uL (final) ([8]; after kinase): 5700 RFU
- RFUs at 10 uL (initial) ([8]; before kinase): 1100 RFU
